# Laboratory results from PubChem BioAssay (NCI).
#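 Cultured in 96-well plates, cells were exposed to test compound for 48 hours across five concentrations. The concentration for full growth arrest is given as TGI.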
# Tests used:
# Assay in all cases: growth of human tumour cells (NCI), 48 h
# [1] = system: RPMI-8226 leukemia
# [2] = system: SNB-75 CNS
# [3] = system: SR leukemia
# [4] = system: LOX IMVI melanoma
# [5] = system: HCT-116 colon
# [6] = system: SK-OV-3 ovarian
# [7] = system: 786-0 renal
# [8] = system: M14 melanoma
# [9] = system: CCRF-CEM leukemia
# [10] = system: UACC-257 melanoma
# [11] = system: U251 CNS
# [12] = system: PC-3 prostate
# [13] = system: SK-MEL-2 melanoma
# [14] = system: HOP-92 NSCLC
# [15] = system: UO-31 renal
# [16] = system: UACC-62 melanoma
# [17] = system: OVCAR-5 ovarian
# [18] = system: NCI/ADR-RES ovarian
# [19] = system: MCF7 breast
# [20] = system: DU-145 prostate
# [21] = system: A549 NSCLC
# [22] = system: OVCAR-3 ovarian
# [23] = system: HOP-62 NSCLC
# [24] = system: SF-268 CNS
# [25] = system: SN12C renal
# [26] = system: EKVX NSCLC
# [27] = system: ACHN renal
# [28] = system: HL-60(TB) leukemia
# [29] = system: MDA-MB-231 breast
# [30] = system: NCI-H23 lung
# [31] = system: IGROV1 ovarian
# [32] = system: A498 renal
# [33] = system: HT29 colon
# [34] = system: SK-MEL-28 melanoma
# [35] = system: HCC-2998 colon
# [36] = system: CAKI-1 renal
# [37] = system: SF-539 CNS
# [38] = system: K-562 leukemia
# [39] = system: MDA-MB-435
# [40] = system: OVCAR-8 ovarian
# [41] = system: SK-MEL-5 melanoma
# [42] = system: SNB-19 CNS
# [43] = system: TK-10 renal
# [44] = system: NCI-H226 lung
# [45] = system: COLO 205 colon
# [46] = system: SF-295 CNS
# [47] = system: MOLT-4 leukemia
# [48] = system: NCI-H522 lung
# [49] = system: KM12 colon
# [50] = system: RXF 393 renal
# [51] = system: OVCAR-4 ovarian
# [52] = system: T-47D breast
# [53] = system: SW-620 colon
# [54] = system: MALME-3M melanoma
# [55] = system: HCT-15 colon
# [56] = system: MDA-N
# [57] = system: NCI-H460 lung
structure (smiles),measurement,setting,value
Oc1ccc(/C=N/NC(=S)Nc2cccnc2)nc1,TGI,[1],76.4 µM
same,TGI,[2],97 µM
same,TGI,[3],807 nM
same,TGI,[4],> 100 µM
same,TGI,[5],> 100 µM
same,TGI,[6],> 100 µM
same,TGI,[7],> 73.5 µM
same,TGI,[8],> 33.3 µM
same,TGI,[9],9.78 µM
same,TGI,[10],76.9 µM
same,TGI,[11],> 67 µM
same,TGI,[12],> 100 µM
same,TGI,[13],> 100 µM
same,TGI,[14],59.6 µM
same,TGI,[15],> 26.9 µM
same,TGI,[16],29.3 µM
same,TGI,[17],> 100 µM
same,TGI,[18],9.59 µM
same,TGI,[19],> 39 µM
same,TGI,[20],> 89.4 µM
same,TGI,[21],> 100 µM
same,TGI,[22],> 100 µM
same,TGI,[23],> 100 µM
same,TGI,[24],> 100 µM
same,TGI,[25],> 57 µM
same,TGI,[26],> 100 µM
same,TGI,[27],32.3 µM
same,TGI,[28],14.4 µM
same,TGI,[29],> 31.6 µM
same,TGI,[30],61.9 µM
same,TGI,[31],> 100 µM
same,TGI,[32],> 81.2 µM
same,TGI,[33],> 100 µM
same,TGI,[34],> 100 µM
same,TGI,[35],> 100 µM
same,TGI,[36],> 100 µM
same,TGI,[37],19.6 µM
same,TGI,[38],> 23.1 µM
same,TGI,[39],> 100 µM
same,TGI,[40],12.6 µM
same,TGI,[41],> 100 µM
same,TGI,[42],> 100 µM
same,TGI,[43],> 25.7 µM
same,TGI,[44],> 100 µM
same,TGI,[45],> 100 µM
same,TGI,[46],> 75.6 µM
same,TGI,[47],15 µM
same,TGI,[48],21.7 µM
same,TGI,[49],> 100 µM
same,TGI,[50],> 61.2 µM
same,TGI,[51],> 100 µM
same,TGI,[52],> 100 µM
same,TGI,[53],> 100 µM
same,TGI,[54],9.12 µM
same,TGI,[55],> 100 µM
same,TGI,[56],> 100 µM
O=C(O)CCC(NC(=O)c1ccc(Oc2nc3ccccc3nc2-c2ccccc2)cc1)C(=O)O (stereo unspecified),TGI,[2],> 100 µM
same,TGI,[3],> 100000 nM
same,TGI,[4],> 100 µM
same,TGI,[5],> 100 µM
same,TGI,[6],> 100 µM
same,TGI,[7],> 100 µM
same,TGI,[8],> 100 µM
same,TGI,[9],> 100 µM
same,TGI,[10],> 100 µM
same,TGI,[11],> 100 µM
same,TGI,[12],> 100 µM
same,TGI,[13],> 100 µM
same,TGI,[14],> 100 µM
same,TGI,[15],> 100 µM
same,TGI,[16],> 100 µM
same,TGI,[17],> 100 µM
same,TGI,[18],> 100 µM
same,TGI,[19],> 100 µM
same,TGI,[20],> 100 µM
same,TGI,[21],> 100 µM
same,TGI,[22],> 100 µM
same,TGI,[23],> 100 µM
same,TGI,[24],> 100 µM
same,TGI,[25],> 100 µM
same,TGI,[26],> 100 µM
same,TGI,[27],> 100 µM
same,TGI,[28],> 100 µM
same,TGI,[29],> 100 µM
same,TGI,[30],> 100 µM
same,TGI,[31],> 100 µM
same,TGI,[32],> 100 µM
same,TGI,[33],> 100 µM
same,TGI,[34],> 100 µM
same,TGI,[57],> 100 µM
same,TGI,[35],> 100 µM
same,TGI,[36],> 100 µM
same,TGI,[37],> 100 µM
same,TGI,[38],> 100 µM
same,TGI,[39],> 100 µM
same,TGI,[40],> 100 µM
same,TGI,[42],> 100 µM
same,TGI,[43],> 100 µM
same,TGI,[44],> 100 µM
same,TGI,[45],> 100 µM
same,TGI,[46],> 100 µM
same,TGI,[47],> 100 µM
same,TGI,[48],> 100 µM
same,TGI,[49],> 100 µM
same,TGI,[50],> 100 µM
same,TGI,[51],> 100 µM
same,TGI,[52],> 100 µM
same,TGI,[53],> 100 µM
same,TGI,[54],> 100 µM
same,TGI,[55],> 100 µM
same,TGI,[56],> 100 µM
